Test results from US20180028471A1, “CONTINUOUS LOCAL SLOW-RELEASE OF THERAPEUTICS FOR HEAD AND NECK PROBLEMS AND UPPER AERODIGESTIVE DISORDERS” (Board of Supervisors of Louisiana State University and …, priority 2016, published 2018).

What was measured:
minimal residual disease = test: Model of minimal residual disease (tumor formation, survival); type: in vivo
mTOR pathway markers = test: Phase 2 biomarker exploratory trial: mTOR pathway markers in tumors and PBMCs; type: in vivo; details: HNSCC patients
Text: Criteria #1) Biomarker expression in normal tissue should be different from that in high risk tissue. In FIG. 2 we present an analysis of cancer (lanes 5, 6, 11, and 12) and non-cancer (patients with sleep apnea) (lanes1-4 and 7-10) patient samples. The cancer samples include tumors (T) and histologically tumor-free margins (M). […] Criteria #2) Biomarkers can be detected in small tissue specimens. In our studies we have successfully detected by western blots and even by IHC the various Akt/mTOR markers on samples often as small as 5 mm. Criteria #3) Biomarkers can be expressed in a quantity or pattern that can be correlated with the stage of carcinogenesis.

HNSCC cell lines = test: Inhibition of cell proliferation in HNSCC cell lines; type: cell-based
Text: While curcumin can be used to treat these cancers, other compounds that act on these pathways may also be useful in treating these cancers and it should be readily recognized that such compounds could also be delivered by including in the formulations described herein.

DMBA-induced oral tumors = details: 10 μmol topically to cheek pouch 3 times/week for 24 weeks; cited from earlier work
[1] = test system: prostate cancer xenograft; details: p.o. gavage 5 mg/day, 5 days/week for 4 weeks; cited from earlier work
SCC066 = test: Modulation of NFκB and Akt/mTOR pathways in SCC066 cells; type: cell-based; details: 10 μM, 24 and 48 hours
SCC40 cells = test: Modulation of NFκB and Akt/mTOR pathways in SCC40 cells; type: cell-based; details: 10 μM
[2] = test system: normal fibroblast cell line CCL110; test: Modulation of NFκB and Akt/mTOR pathways in CCL110 normal fibroblasts; type: cell-based; details: 10 μM, 24 and 48 hours
tumor cells = test: Chemoprevention model: pre-treatment before tumor cell injection, tumor volumes; type: in vivo, Balb/c nu/nu mice; details: 10 mg, pre-treated 4 days before tumor cell injection, about three weeks
Procedure: Balb/c nu/nu mice were randomized into treatment groups. […] Tumors were measured over approximately three weeks. […] ANOVA analysis. […] This also points to its role as a chemopreventive agent rather than a therapeutic agent.

[3] = test system: TPA-induced tumor promotion on mouse skin; details: topical application of 10 μmol twice weekly; cited from earlier work
PCI15a cells = test: Modulation of NFκB and Akt/mTOR pathways in PCI15a cells; type: cell-based; details: 10 μM
SCC40 xenografts = test: pAkt and pS6 in SCC40 xenografts of treated mice; type: in vivo; details: mice with SCC40 xenografts, FIG. 3B
[4] = test system: normal fibroblast cell line CCL110; test: Effects on normal fibroblast cell line CCL110 (proliferation); type: cell-based; details: normal fibroblast cell line CCL110, FIG. 1

CO[C@H]1C[C@@H]2CC[C@@H](C)[C@@](O)(O2)C(=O)C(=O)N2CCCC[C@H]2C(=O)O[C@H]([C@H](C)C[C@@H]2CC[C@@H](OC(=O)C(C)(CO)CO)[C@H](OC)C2)CC(=O)[C@H](C)/C=C(\C)[C@@H](O)[C@@H](OC)C(=O)[C@H](C)C[C@H](C)/C=C/C=C/C=C/1C [CCI-779, temsirolimus]
survival (minimal residual disease): improve survival
tumor formation (minimal residual disease): inhibit tumor formation
mTOR pathway markers in tumors and PBMCs (mTOR pathway markers): modulation of these markers

CO[C@H]1C[C@@H]2CC[C@@H](C)[C@@](O)(O2)C(=O)C(=O)N2CCCC[C@H]2C(=O)O[C@H]([C@H](C)C[C@@H]2CC[C@@H](OCCO)[C@H](OC)C2)CC(=O)[C@H](C)/C=C(\C)[C@@H](O)[C@@H](OC)C(=O)[C@H](C)C[C@H](C)/C=C/C=C/C=C/1C [RAD001, everolimus, reference compound]
sensitivity of a variety of cell lines (HNSCC cell lines): wide range of sensitivity

COc1cc(/C=C/C(=O)CC(=O)/C=C/c2ccc(O)c(OC)c2)ccc1O [curcumin]
reduction of the number of DMBA-induced oral tumors (DMBA-induced oral tumors): ~40%
inhibition of growth of prostate cancer xenograft [1]: ~50%
Akt/mTOR pathway (SCC066): did not show any modulation
Akt/mTOR pathway (SCC40 cells; 24 and 48 hours): no change
pNFκB (SCC40 cells; after 48 hours): down-regulation
pNFκB or Akt/mTOR [2]: no decrease
tumor volumes versus control (vehicle treated) (tumor cells): no significant difference
inhibition of the number of tumors per mouse [3]: 98%
pNFκB (PCI15a cells; 24 and 48 hours): no change
pAkt (PCI15a cells; 48 hours): down-regulated
pS6 downstream of mTOR (PCI15a cells; 48 hours): down-regulated
pAkt (SCC40 xenografts): significant decrease
pS6 (SCC40 xenografts): significant decrease
growth inhibitory effects on all HNSCC cell lines tested (HNSCC cell lines; all 10 HNSCC cell lines tested to date): growth inhibitory effects
cell proliferation at 10 μM (HNSCC cell lines; all HNSCC cell lines, 10 μM, FIG. 1): inhibition of cell proliferation
growth inhibitory effects at 48 hours (HNSCC cell lines; all three HNSCC cell lines, 48 hours): significant growth inhibitory effects
concentration giving consistent inhibition of cell proliferation (HNSCC cell lines; variety of HNSCC cell lines, in vitro, FIG. 1): less than 10 μM
sensitivity of a variety of cell lines (HNSCC cell lines): consistently sensitive
dose required to see effects [4]: 20 to 40 µM
